The values below come from US20070167478A1, “Biomarkers for sensitivity of proliferative diseases to mtor inhibitors” (priority 2003, published 2007).

SMILES strings stand for the structures. pIC50: −log10 of the molar value.

What all share (format): cell-based
Experiment [1] has as its system MCF7. Briefly: Antiproliferative assay, methylene blue staining, MCF7. As to conditions: MCF7 human tumor cell line, 4 days incubation. Here is the method: (§1) Human tumor cell lines, e.g. the 40-O-(2-hydroxyethyl) rapamycin-sensitive MCF7, BT549 or LNCap lines (IC50 in sub nM range) versus the comparative 40-O-(2-hydroxyethyl) rapamycin-resistant PC3M line (IC50 in the >100 nM range), as well as cell lines with moderate rapamcyin-sensitivity (IC50 in the 1 nM-100 nM range) such as DU145, HCC1937 and MDA-MB231, are added to 96-well plates (500 to 5000 cells/well in 100 μl medium) and incubated for 24 hr. Subsequently, a dilution series of an mTOR inhibitor, e.g. a compound of formula A, e.g. 40-O-(2-hydroxyethyl) rapamycin is made in separate wells and the dilutions are added to the wells. The cells are then re-incubated for 4 days. Methylene blue staining is performed on day 5 and the amount of bound dye (proportional to the number of surviving cells that bind the dye) determined. IC50s are subsequently determined using Softmax 1.2.0 software.

Experiment [2] concerns LNCap. The experiment can be described thus: Antiproliferative assay, methylene blue staining, LNCap. Conditions: LNCap human tumor cell line, 4 days incubation. Here is the method:
as §1

For experiment [3], the system named is PC3M. The experiment can be described thus: Antiproliferative assay, methylene blue staining, PC3M. Conditions: PC3M human tumor cell line, 4 days incubation. As for the experimental part: as §1
Experiment [4] deals with BT549. Briefly: Antiproliferative assay, methylene blue staining, BT549. As to conditions: BT549 human tumor cell line, 4 days incubation. Here is the method:
as §1

The term pIC50 denotes the IC50 on a negative log10 scale, so that one unit is a factor of ten. Read a high pIC50 as a small IC50. As to `CO[C@H]1C[C@@H]2CC[C@@H](C)[C@@](O)(O2)C(=O)C(=O)N2CCCC[C@H]2C(=O)O[C@H]([C@H](C)C[C@@H]2CC[C@@H](OCCO)[C@H](OC)C2)CC(=O)[C@H](C)/C=C(\C)[C@@H](O)[C@@H](OC)C(=O)[C@H](C)C[C@H](C)/C=C/C=C/C=C/1C` [40-O-(2-hydroxyethyl) rapamycin], the IC50 result in experiment [1], in experiment [2] and in experiment [4] was “sub nM” in each case. In addition, in experiment [3], the pIC50 was under 7.00.
